Experiments:
[1] = system: S. pyogenes ATCC 12344; test: MBC assay; assay type: cell-based, Streptococcus pyogenes; details: Mueller-Hinton broth pH 7.0
Text: (§1) (a) staphylococci. The Staphylococcus aureus strain used was ATCC 29213. S. aureus and other staphylococci are common causes of a wide range of skin, skin structure and wound infections; S. aureus is also known to exacerbate eczema. The ATCC 29213 strain is known to be susceptible to beta-lactam antibiotics such as methicillin. The Staphylococcus epidermidis strain used was NCTC 11047. Staph. epidermidis forms part of the resident flora of skin and is an opportunistic pathogen which can cause biofilms to grow for instance on plastic surgical implants such as catheters. Unless otherwise stated, the staphylococci were cultured and maintained on Mueller-Hinton Medium (agar and broth) at pH 7.2; cultures were incubated aerobically at 37° C. for 19-20 hours, at pH 7 (±0.2). (b) C. striatum NCTC 764. Corynebacterium striatum is closely related to organisms (aerobic diphtheroids of the genus Corynebacterium) that cause body odour. It was cultured and maintained on Mueller-Hinton medium (agar and broth). All cultures were incubated aerobically at 37° C. for 72 hours, at pH 7 (±0.2). (c) streptococci. The strains tested were S. mutans ATCC 25175 and S. pyogenes ATCC 12344. S. mutans is a Gram-positive, microaerophilic bacterium which plays a significant role in dental caries and in infective endocarditis. Streptococcus pyogenes is associated with skin, soft tissue, burn and wound infections. […]

[2] = system: P. acnes; test: Agar dilution MIC assay, panel of propionibacterium strains; assay type: cell-based, Propionibacterium acnes
Protocol: This is a standard international method for quantitatively assessing the antimicrobial activity of a compound in a solid medium. The test compound was prepared to 40× the highest concentration required (eg 10 mg/ml for a final concentration of […]) and a series of doubling dilutions were performed in a suitable solvent. A set amount of these antimicrobial stock solutions was then added to molten agar medium (ca 55° C.), mixed thoroughly, poured into sterile Petri dishes and allowed to cool/set. The culture medium was as described above.
A Multipoint™ Inoculator (AQS Manufacturing Ltd, UK) was used to inoculate the plates by spotting the inocula onto the surface of the agar, delivering approximately 1 to 2 μl per spot (yielding 10^5 CFU (colony forming units) per spot).
The plate(s) were then incubated under the conditions described above, following which they were examined visually for signs of bacterial growth. The MIC value was ascertained when there was a marked reduction in, or total loss of, growth on the test plate at the lowest concentration as compared to that of the growth on the control plate.
The assays were conducted in triplicate and included a positive control (culture medium, diluting solvent and inoculum).
The activity (MIC by agar dilution) of copper usnate was determined against a panel of different propionibacterium strains. The culture medium was Wilkins-Chalgren agar, at pH 6.0. DMSO was used as the solvent. All tests were performed in triplicate.

[3] = system: S. pyogenes ATCC 12344; test: MIC assay; assay type: cell-based, Streptococcus pyogenes; details: Mueller-Hinton broth pH 7.0
[4] = system: C. striatum NCTC 764; test: Disc diffusion assay (DDA); assay type: cell-based, Corynebacterium striatum; details: Corynebacterium striatum, NCTC764; 200 μg per disc; single plates; read-out: DDA zone diameter
Text: as §1, with “streptococci.” for “streptococci. The strains tested were S. mutans ATCC 25175 and S. pyogenes ATCC 12344. S. mutans is a Gram-positive, microaerophilic bacterium which plays a significant role in dental caries and in infective endocarditis. Streptococcus pyogenes is associated with skin, soft tissue, burn and wound infections.”
A sterile paper disc was impregnated with a sample of the test compound in a suitable solvent and 30 minutes allowed for the solvents to evaporate (where possible). […] The diameter of this zone of “inhibition” was measured using a ProtoCOL™ automated zone sizer (Synbiosis, Cambridge, UK). […]

| SMILES | MBC [1] [µg/mL] | MIC ([2]; P. acnes NCTC 737, mutation None, resistance phenotype None) [µg/mL] | MIC ([2]; P. acnes PRP-002, mutation 1058/2058, resistance Tet/MLS) [µg/mL] | MIC ([2]; P. acnes PRP-003, mutation 1058, resistance Tet) [µg/mL] | MIC ([2]; P. acnes PRP-004, mutation 1058, resistance Tet) [µg/mL] | MIC ([2]; P. acnes PRP-007, mutation Unknown, resistance Clin) [µg/mL] | MIC ([2]; P. acnes PRP-010, Erm X, resistance MLSK) [µg/mL] | MIC ([2]; P. acnes PRP-017, mutation 2058, resistance MLS) [µg/mL] | MIC ([2]; P. acnes PRP-023, Erm X, resistance MLSK) [µg/mL] | MIC ([2]; P. acnes PRP-026, mutation 2059, resistance MLS) [µg/mL] | MIC ([2]; P. acnes PRP-039, mutation 2059, resistance Tet/MLS) [µg/mL] | MIC ([2]; P. acnes PRP-046, mutation None, resistance None) [µg/mL] | MIC ([2]; P. acnes PRP-059, mutation 2058, resistance MLS) [µg/mL] | MIC ([2]; P. acnes PRP-101, mutation 1058/2059, resistance Tet/MLS) [µg/mL] | MIC ([2]; P. acnes PRP-102, mutation 1058/2059, resistance Tet/MLS) [µg/mL] | MIC [3] [µg/mL] | zone of inhibition at 200 µg/disc [4] [mm] |
| --- | --- | --- | --- | --- | --- | --- | --- | --- | --- | --- | --- | --- | --- | --- | --- | --- | --- |
| CC(=O)c1c([O-])c(C)c([O-])c2c1OC1=CC(=O)C(C(C)=O)C(=O)C12C.[Cu+2] (centres unmarked) [Copper usnate, copper (II) usnate] | 0.98 | 0.49 | 0.49 | 0.49 | 0.49 | 0.49 | 0.49 | 0.49 | 0.49 | 0.49 | 0.49 | 0.49 | 0.49 | 0.49 | 0.49 | 0.98 | – |
| CC(=O)c1c(O)c(C)c(O)c2c1OC1=CC(=O)C(C(C)=O)C(=O)C12C (centres unmarked) [Usnic acid, 2,6-diacetyl-7,9-dihydroxy-8,9b-dimethyl-1,3(2H,9bh)-dibenzofurandione] | – | – | – | – | – | – | – | – | – | – | – | – | – | – | – | – | 20 |

From patent US20120270935A1, “FORMULATIONS” (priority 2009, published 2012)
